Experimental data reported in publication PMC10362580, “Patient-derived organoids for precision oncology: a platform to facilitate clinical decision making” (BMC Cancer, 2023).

Key:
[1] = system: patient-derived primary ovarian cancer organoids (Tumor Organoid); experiment: PDO drug sensitivity and resistance testing (CellTiter-Glo), ovarian tumor organoids; type: cell-based, human; conditions: for IC50: Homo sapiens
Protocol: (§1) Patient-derived tumor organoid was dissociated to single cells after seven days in culture. Epithelial Cells (from tumor and adjacent normal tissues) in combination with patient-derived isogenic adipose-derived Mesenchymal Stem Cells: iECs: MSCs (3:1:1) were seeded at a density of 5000 cells per well in 96-well clear bottom microplates. Multicellular organoids were allowed to grow for seven days. Breast and ovarian organoids were imaged every day and fed every alternate day with aforementioned Breast organoid medium and Ovarian organoid medium respectively. […] Organoids were subsequently incubated for […]; DMSO only- vehicle control and media only- negative control was used to set the baseline. After 0, 1, 7, 14 and 21 days ATP levels were measured with the CellTiter-Glo (Promega, Wisconsin, USA). All screenings were performed in triplicates. Data were analyzed using GraphPad Prism 6. Drug dose–response curves were visualized using […] analysis [setting: log (inhibitor) versus response, least-squares (ordinary) fit; top constraint 100%]. Concentrations where 50% cell viability (IC50-value) was reached were interpolated. The area under the curve (AUC) was approximated between the lowest and highest concentrations screened in the actual assay with the trapezoid rule for numerical integration. The dose–response curves were plotted as the percentage of the cell viability against the logarithm of drug concentrations in µM and were fitted to estimate the IC50.
(§2) We developed a protocol to culture and expand organoids from tissues collected from ovarian cancer patients. […] We performed drug sensitivity and resistance test (DSRT) using 2 FDA-approved commonly used therapeutic drugs paclitaxel and doxorubicin. Depending on the properties of the individual drugs, the concentrations ranged from 0.001 µM to 1000 µM (Fig. 6).
(§3) Following seven days incubation, organoid cultures were manually inspected using a phase-contrast microscope to check cell health and morphology prior to the addition of drugs. CellTiter-Glo® 2.0 determines the number of viable cells in a well, based on the quantification of ATP present, an indicator of metabolically viable cells. Total cell count was measured by CellTiter-Glo® 2.0, which causes cell lysis and produces a luminescence signal proportional to the amount of ATP present. Following completion of the above quality metrics, the data was normalized or the raw intensity data was used for curve-fitting. • Data normalization: Normalization was completed using the following calculation: (Raw intensity signal- Mean of positive control/ Mean of negative control-Mean positive control)

[2] = system: Normal Organoid from normal adjacent tissue of breast cancer patients; experiment: PDO drug sensitivity and resistance testing (CellTiter-Glo), breast normal adjacent tissue organoids; type: cell-based; conditions: Homo sapiens
Protocol: as §1
(§4) We investigated BC organoids in response to standard medications in order to assess their potential as in vitro disease models. Towards this, PDOs were treated with doxorubicin and paclitaxel (commonly used chemotherapeutic drugs).
as §3

[3] = system: Normal Organoid from normal adjacent tissue of ovarian cancer patients; experiment: PDO drug sensitivity and resistance testing (CellTiter-Glo), ovarian normal adjacent tissue organoids; type: cell-based; conditions: Homo sapiens
Protocol: as §1, §2, §3

[4] = system: iPSCs-derived cardiomyocytes; experiment: Calcium transient assay (cardiotoxicity); type: cell-based, human; conditions: 1 µM; cardiomyocytes from healthy donor, breast cancer and ovarian cancer patient
Protocol: To initiate cardiac differentiation, 10,000 cells/cm^2 of passage 11–20 single cell suspension of iPSCs were seeded on matrigel coated plates in mTeSR™1 media and incubated overnight to obtain 95% confluent culture. Once cells reached > 95% confluence, RPMI 1648 medium (Gibco)/B-27 Supplement Minus Insulin (Gibco)/ 100 ng/ml Activin A (Gibco) + Matrigel (Corning) + […] CHIR9902 (Stem Cell Technologies) was added. CHIR9902 only for 24 h. Day 02–04: RPMI 1648 medium (Gibco)/B-27 Supplement Minus Insulin (Gibco)/ activin A (Gibco) (100 ng/ml) and BMP4 (Gibco) (10 ng/ml) and bFGF. Day 05–06: RPMI 1640 (with L-glutamine) with 2% B27 minus insulin supplement, 1 µl IWR-1 (5 µM final). Day 07–09: RPMI 1640 with L-Glutamine (Gibco) with 2% B27 with insulin supplement (Gibco). Day10: At day 10 post-differentiation, changed the medium to RPMI 1648-low glucose medium (Gibco) and maintained the cells in this medium for 3 days (until day 13). Day 13: Returned cells to RPMI/B27 medium-with insulin (Gibco). At day 14, changed the medium back to RPMI-low glucose medium (Gibco) for a second glucose deprivation cycle. Cultured the cells in this low glucose state for 3 more days. Most of the non-cardiomyocytes will die in this low-glucose culture condition. At day 17, changed the medium to 2 ml of RPMI/B27 medium with insulin. The remaining cells will be highly purified cardiomyocytes. […]

[5] = system: patient-derived breast cancer organoids (Tumor Organoid); experiment: PDO drug sensitivity and resistance testing (CellTiter-Glo), breast tumor organoids; type: cell-based, human; conditions: for IC50: Homo sapiens
Protocol: as §1, §4, §3

Q: `COc1cccc2c1C(=O)c1c(O)c3c(c(O)c1C2=O)C[C@@](O)(C(=O)CO)C[C@@H]3O[C@H]1C[C@H](N)[C@H](O)[C@H](C)O1` [Doxorubicin] was tested. Which IC50 ([1]; 168 h, Ovarian Cancer Sample 1, Tumor Organoid, day 7, CTG) did it give?
A: The IC50 was 847 µM.

Q: And the IC50 ([1]; 168 h, Ovarian Cancer Sample 2, Tumor Organoid, day 7, CTG)?
A: The IC50 was 2450 µM.

Q: And the IC50 ([1]; 168 h, Ovarian Cancer Sample 3, Tumor Organoid, day 7, CTG)?
A: Its IC50 is 987 µM.

Q: What about the IC50 ([1]; 336 h, Ovarian Cancer Sample 1, Tumor Organoid, day 14, CTG) of the same molecule?
A: Its IC50 is 877 µM.

Q: What about the IC50 ([1]; 336 h, Ovarian Cancer Sample 2, Tumor Organoid, day 14, CTG) of the same molecule?
A: Its IC50 is 2210 µM.

Q: What about the IC50 ([1]; 336 h, Ovarian Cancer Sample 3, Tumor Organoid, day 14, CTG) of the same molecule?
A: The IC50 was 1040 µM.

Q: What about the IC50 ([1]; 504 h, Ovarian Cancer Sample 1, Tumor Organoid, day 21, CTG) of the same molecule?
A: Its IC50 is 1.02 µM.

Q: What about the IC50 ([1]; 504 h, Ovarian Cancer Sample 2, Tumor Organoid, day 21, CTG) of the same molecule?
A: Its IC50 is 1930 µM.

Q: And the IC50 ([1]; 504 h, Ovarian Cancer Sample 3, Tumor Organoid, day 21, CTG)?
A: Its IC50 is 98.1 µM.

Q: And the “Viability of organoids (CTG assay)” value ([1]; ovarian cancer organoids)?
A: The value was “significantly decreased the viability of organoids”.

Q: What about the IC50 ([2]; 168 h, Breast Cancer Sample 1, Normal Organoid, day 7, CTG) of the same molecule?
A: Its IC50 is 96.6 µM.

Q: And the IC50 ([2]; 168 h, Breast Cancer Sample 2, Normal Organoid, day 7, CTG)?
A: The IC50 was 859 µM.

Q: What about the IC50 ([2]; 168 h, Breast Cancer Sample 3, Normal Organoid, day 7, CTG) of the same molecule?
A: The IC50 was 955 µM.

Q: What about the IC50 ([2]; 336 h, Breast Cancer Sample 1, Normal Organoid, day 14, CTG) of the same molecule?
A: The IC50 was 92 µM.

Q: What about the IC50 ([2]; 336 h, Breast Cancer Sample 2, Normal Organoid, day 14, CTG) of the same molecule?
A: Its IC50 is 1010 µM.

Q: What about the IC50 ([2]; 336 h, Breast Cancer Sample 3, Normal Organoid, day 14, CTG) of the same molecule?
A: Its IC50 is 96.4 µM.

Q: What about the IC50 ([2]; 504 h, Breast Cancer Sample 1, Normal Organoid, day 21, CTG) of the same molecule?
A: Its IC50 is 0.955 µM.

Q: And the IC50 ([2]; 504 h, Breast Cancer Sample 2, Normal Organoid, day 21, CTG)?
A: Its IC50 is 9.53 µM.

Q: And the IC50 ([2]; 504 h, Breast Cancer Sample 3, Normal Organoid, day 21, CTG)?
A: The IC50 was 10.2 µM.

Q: What about the IC50 ([3]; 168 h, Ovarian Cancer Sample 1, Normal Organoid, day 7, CTG) of the same molecule?
A: The IC50 was 96.2 µM.

Q: And the IC50 ([3]; 168 h, Ovarian Cancer Sample 2, Normal Organoid, day 7, CTG)?
A: The IC50 was 2340 µM.

Q: What about the IC50 ([3]; 168 h, Ovarian Cancer Sample 3, Normal Organoid, day 7, CTG) of the same molecule?
A: Its IC50 is 102 µM.

Q: And the IC50 ([3]; 336 h, Ovarian Cancer Sample 1, Normal Organoid, day 14, CTG)?
A: Its IC50 is 8.92 µM.

Q: And the IC50 ([3]; 336 h, Ovarian Cancer Sample 2, Normal Organoid, day 14, CTG)?
A: The IC50 was 2250 µM.

Q: What about the IC50 ([3]; 336 h, Ovarian Cancer Sample 3, Normal Organoid, day 14, CTG) of the same molecule?
A: Its IC50 is 8.89 µM.

Q: And the IC50 ([3]; 504 h, Ovarian Cancer Sample 1, Normal Organoid, day 21, CTG)?
A: Its IC50 is 0.0119 µM.

Q: What about the IC50 ([3]; 504 h, Ovarian Cancer Sample 2, Normal Organoid, day 21, CTG) of the same molecule?
A: The IC50 was 1160 µM.

Q: What about the IC50 ([3]; 504 h, Ovarian Cancer Sample 3, Normal Organoid, day 21, CTG) of the same molecule?
A: Its IC50 is 9.29 µM.

Q: What about the “Calcium oscillation/contraction pattern sensitivity, donor comparison” value [4] of the same molecule?
A: The value was “Ovarian cancer patient’s cardiomyocytes was found more sensitive to Doxorubicin followed by breast cancer patient and healthy donor”.

Q: And the IC50 ([5]; 168 h, Breast Cancer Sample 1, Tumor Organoid, day 7, CTG)?
A: The IC50 was 902 µM.

Q: What about the IC50 ([5]; 168 h, Breast Cancer Sample 2, Tumor Organoid, day 7, CTG) of the same molecule?
A: The IC50 was 976 µM.

Q: And the IC50 ([5]; 168 h, Breast Cancer Sample 3, Tumor Organoid, day 7, CTG)?
A: The IC50 was 938 µM.

Q: And the IC50 ([5]; 336 h, Breast Cancer Sample 1, Tumor Organoid, day 14, CTG)?
A: The IC50 was 117 µM.

Q: What about the IC50 ([5]; 336 h, Breast Cancer Sample 2, Tumor Organoid, day 14, CTG) of the same molecule?
A: Its IC50 is 1060 µM.

Q: What about the IC50 ([5]; 336 h, Breast Cancer Sample 3, Tumor Organoid, day 14, CTG) of the same molecule?
A: Its IC50 is 92.2 µM.

Q: What about the IC50 ([5]; 504 h, Breast Cancer Sample 1, Tumor Organoid, day 21, CTG) of the same molecule?
A: Its IC50 is 125 µM.

Q: What about the IC50 ([5]; 504 h, Breast Cancer Sample 2, Tumor Organoid, day 21, CTG) of the same molecule?
A: Its IC50 is 97.6 µM.

Q: What about the IC50 ([5]; 504 h, Breast Cancer Sample 3, Tumor Organoid, day 21, CTG) of the same molecule?
A: Its IC50 is 9.55 µM.

Q: What about the “Viability of organoids (CTG assay)” value ([5]; breast cancer organoids) of the same molecule?
A: The value was “significantly decreased the viability of organoids”.

Q: What about the “Response of breast cancer PDOs to treatment” value ([5]; few breast cancer PDOs) of the same molecule?
A: The value was “resistant”.
